Experimental data from ChEMBL document CHEMBL5528009, “Benzothiozinone derivatives with anti-tubercular Activity-Further side chain investigation” (Eur J Med Chem, 2024).
≈ marks a conversion by molar mass, not a printed value. Calls of active or inactive are those of the source. The rule behind the calls is not given here.

Legend:
[1] = tested on: Mycobacterium tuberculosis; assay: Antitubercular activity against Mycobacterium tuberculosis H37Rv (ATCC 25618) incubated for […] by MABA assay; format: functional
[2] = biological target: T1, Decaprenylphosphoryl-beta-D-ribose oxidase (Mycobacterium tuberculosis (strain ATCC 25618 / H37Rv)) (UniProt P9WJF1); assay: Time-dependent covalent inhibition of recombinant Mycobacterium tuberculosis DprE1 expressed in Escherichia coli by Amplex Red/peroxidase coupled assay
T1 sequence (whole entry): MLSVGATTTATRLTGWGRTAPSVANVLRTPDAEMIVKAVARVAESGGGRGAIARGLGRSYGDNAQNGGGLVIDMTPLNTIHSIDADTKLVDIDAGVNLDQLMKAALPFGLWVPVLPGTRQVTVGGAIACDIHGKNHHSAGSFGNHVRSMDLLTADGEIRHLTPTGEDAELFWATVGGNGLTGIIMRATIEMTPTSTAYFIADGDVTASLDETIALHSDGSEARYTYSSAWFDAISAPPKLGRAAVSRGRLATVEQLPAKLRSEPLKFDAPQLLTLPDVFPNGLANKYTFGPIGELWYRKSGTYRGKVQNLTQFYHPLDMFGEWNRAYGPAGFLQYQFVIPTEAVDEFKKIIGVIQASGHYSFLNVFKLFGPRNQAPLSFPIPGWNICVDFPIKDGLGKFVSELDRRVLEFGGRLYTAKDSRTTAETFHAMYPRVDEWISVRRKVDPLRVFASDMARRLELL

[3] = biological target: T2, Decaprenylphosphoryl-beta-D-ribose oxidase (Mycobacterium tuberculosis (strain ATCC 25618 / H37Rv), UniProt P9WJF1); assay: Inhibition of recombinant Mycobacterium tuberculosis DprE1 expressed in Escherichia coli measured after 120 mins by Amplex Red/peroxidase coupled assay
T2 sequence (P9WJF1 whole entry): T1 sequence (whole entry)

[4] = Metabolic stability in NADPH-fortified mouse liver microsomes assessed as CYP450-mediated stability incubated for 120 mins by LC/MS analysis; format: ADME, Microsome; details: 2 h
[5] = Metabolic stability in NADPH-fortified human liver microsomes assessed as CYP450-mediated stability incubated for 120 mins by LC/MS analysis; format: ADME, Microsome; details: 2 h

In the case of `CN(CC#Cc1ccc(F)cc1F)c1nc(=O)c2cc(C(F)(F)F)cc([N+](=O)[O-])c2s1`, the MIC [1] is reported as 0.007 µM (≈ 0.00319 µg/mL).
For `CN(C/C=C/C1CC1)c1nc(=O)c2cc(C(F)(F)F)cc([N+](=O)[O-])c2s1`, the MIC [1] was 0.023 µM (≈ 0.00886 µg/mL).
With `CN(CC#CC(C)(C)C)c1nc(=O)c2cc(C(F)(F)F)cc([N+](=O)[O-])c2s1` the MIC [1] was 0.023 µM (≈ 0.00919 µg/mL).
In the case of `CN(CC#Cc1cnsc1)c1nc(=O)c2cc(C(F)(F)F)cc([N+](=O)[O-])c2s1`, the MIC [1] is reported as 0.03 µM (≈ 0.0128 µg/mL).
With `CN(C/C=C/c1ccccc1)c1nc(=O)c2cc(C(F)(F)F)cc([N+](=O)[O-])c2s1` the MIC [1] was 0.024 µM (≈ 0.0101 µg/mL) and the TDI [2] was “Active”.
With `CN(C/C=C\C1CCCC1)c1nc(=O)c2cc(C(F)(F)F)cc([N+](=O)[O-])c2s1` the MIC [1] was 0.01 µM (≈ 0.00413 µg/mL).
With `CN(CC#CCN1CCOCC1)c1nc(=O)c2cc(C(F)(F)F)cc([N+](=O)[O-])c2s1` the MIC [1] was 0.106 µM (≈ 0.0469 µg/mL).
Work on `C#CCN(C)c1nc(=O)c2cc(C(F)(F)F)cc([N+](=O)[O-])c2s1` yielded an MIC [1] of 1.4 µM (≈ 0.479 µg/mL).
With `CN(CC#CC1CCCCC1)c1nc(=O)c2cc(C(F)(F)F)cc([N+](=O)[O-])c2s1` the MIC [1] was 0.002 µM (≈ 0.000851 µg/mL), the TDI [2] was “Active” and the IC50 [3] was 18 nM.
`CN(CC#CCN1CCSCC1)c1nc(=O)c2cc(C(F)(F)F)cc([N+](=O)[O-])c2s1` showed an MIC [1] of 0.028 µM (≈ 0.0128 µg/mL).
With `CN(C)Cc1ccc(C#CCN(C)c2nc(=O)c3cc(C(F)(F)F)cc([N+](=O)[O-])c3s2)cc1` the MIC [1] was 0.47 µM (≈ 0.224 µg/mL).
With `CN(CC#Cc1cccs1)c1nc(=O)c2cc(C(F)(F)F)cc([N+](=O)[O-])c2s1` the Stability [4] was “Stable”, the MIC [1] was 0.014 µM (≈ 0.00596 µg/mL) and the TDI [2] was “Active”. The Stability [5] was “Stable”.
In the case of `CN(CC#CCN1CC2(COC2)C1)c1nc(=O)c2cc(C(F)(F)F)cc([N+](=O)[O-])c2s1`, the MIC [1] is reported as 0.423 µM (≈ 0.192 µg/mL).
In the case of `CN(Cc1nnc(-c2ccccc2)o1)c1nc(=O)c2cc(S(C)(=O)=O)cc([N+](=O)[O-])c2s1`, the MIC [1] is reported as 0.03 µM (≈ 0.0142 µg/mL).
In the case of `CN(CC#CCN1CCCCC1)c1nc(=O)c2cc(C(F)(F)F)cc([N+](=O)[O-])c2s1`, the MIC [1] is reported as 0.127 µM (≈ 0.0559 µg/mL).
`CN(CC#Cc1ccc2c(c1)OCO2)c1nc(=O)c2cc(C(F)(F)F)cc([N+](=O)[O-])c2s1` showed an MIC [1] of 0.145 µM (≈ 0.0672 µg/mL).
In the case of `CN(C/C=C\C1CCCCC1)c1nc(=O)c2cc(C(F)(F)F)cc([N+](=O)[O-])c2s1`, the MIC [1] is reported as 0.009 µM (≈ 0.00385 µg/mL).
Work on `COc1cccc(C#CCN(C)c2nc(=O)c3cc(C(F)(F)F)cc([N+](=O)[O-])c3s2)c1` yielded an MIC [1] of 0.093 µM (≈ 0.0418 µg/mL).
Work on `CN1CCN(CC#CCN(C)c2nc(=O)c3cc(C(F)(F)F)cc([N+](=O)[O-])c3s2)CC1` yielded an MIC [1] of 1.92 µM (≈ 0.876 µg/mL).
`CN(CC#CCN1CC[S+]([O-])CC1)c1nc(=O)c2cc(C(F)(F)F)cc([N+](=O)[O-])c2s1` showed an MIC [1] of 1.05 µM (≈ 0.498 µg/mL).
For `CN(CC#Cc1ccsc1)c1nc(=O)c2cc(C(F)(F)F)cc([N+](=O)[O-])c2s1`, the Stability [4] was “Stable”, the MIC [1] was 0.014 µM (≈ 0.00596 µg/mL) and the Stability [5] was “Stable”.
